Assay results from US20060183168A1, “Method for optimizing therapeutic efficacy of nemorubicin” (priority 2002, published 2006).

Tests used:
CYP3A4/5 = experiment: Antibody studies: inhibition of nemorubicin metabolism by human liver microsomes; format: in vitro ADME; details: nemorubicin 20 μM, NADPH 0.5 mM, 10 min at 37° C.
Method: Human liver microsomes were preincubated at 25° C. for 5 min. with and without a monoclonal antibody anti-CYP3A4/5 (MAB-3A4 Genetest) in Tris 0.3M (pH 7.4) before adding nemorubicin (20 μM and NADPH (0.5 mM). After 10 min at 37° C., the amount of nemorubicin metabolites was evaluated by a HPLC system.
(§1) High-performance liqid chromatographic (HPLC) system consisted of a Waters Model 510 isocratic pump equipped with autosampler. Detection was performed by a Perkin Elmer fluorescence spectrofotometer LS-5 set at 479 and 552 nm excitation and emission wavelength, respectively. Detector was connected to a Shimadzu C-R3A integrator. The cromatographic separation was performed on a Waters Simmetry C8 reverse phase column. The mobile phase was 10 mM KH2P4/Methanol/CH3CN (45:30:25). The flow rate was 1.5 ml/min. Standard curves of fluorescence versus drug concentration for nemorubicin and metabolites were used to calculate drug concentration in the samples.

CYP3A4 = target: T1, CYP3A4 (Homo sapiens, UniProt P08684); experiment: Metabolic potential of microsomes from cells expressing single human CYP 450 isoenzymes; format: in vitro ADME; details: 50 pmol CYP/ml, nemorubicin 20 μM, NADPH 0.5 mM, 37° C., 20 min; CYP3A4, CYP3A5, CYP1A2, CYP2E1, CYP2D61, CYP2C91, CYP2C8
T1 construct: expressed in transfected cells
Method: Microsomes were obtained from cell cultures overexpressing CYP3A4, CYP3A5, CYP1A2, CYP2E1, CYP2D61, CYP2C91 and CYP2C8. Microsomes (50 pmol CYP/ml) were incubated with nemomubicin (20 μM) and NADPH (0.5 mM) in 0.3M Tris (pH 7.4) at 37° C. for 20 min. Nemorubicin metabolism was quantified by HPLC method.
as §1

T1 sequence (P08684 whole entry): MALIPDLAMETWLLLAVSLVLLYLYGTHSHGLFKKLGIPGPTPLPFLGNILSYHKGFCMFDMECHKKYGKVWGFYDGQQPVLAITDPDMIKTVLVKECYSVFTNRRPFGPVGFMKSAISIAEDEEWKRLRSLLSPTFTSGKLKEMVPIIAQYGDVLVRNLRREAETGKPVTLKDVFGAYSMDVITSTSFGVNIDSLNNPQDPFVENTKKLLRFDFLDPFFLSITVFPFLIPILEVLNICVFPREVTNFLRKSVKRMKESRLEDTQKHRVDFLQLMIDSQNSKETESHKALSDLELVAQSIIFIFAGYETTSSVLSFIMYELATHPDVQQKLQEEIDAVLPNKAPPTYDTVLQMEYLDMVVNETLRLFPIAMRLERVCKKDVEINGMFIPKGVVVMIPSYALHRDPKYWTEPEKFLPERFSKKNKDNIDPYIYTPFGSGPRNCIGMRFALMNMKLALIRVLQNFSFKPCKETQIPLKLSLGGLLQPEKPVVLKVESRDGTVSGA

COc1cccc2c1C(=O)c1c(O)c3c(c(O)c1C2=O)C[C@@](O)(C(=O)CO)C[C@@H]3O[C@H]1C[C@H](N2CCO[C@H](OC)C2)[C@H](O)[C@H](C)O1 [nemorubicin]
isoenzyme responsible for nemorubicin metabolism (antibody inhibition) (CYP3A4/5): only the CYP3A4 isoenzyme is responsible for the metabolism of nemorubicin | metabolism of nemorubicin by microsomes overexpressing single CYP isoenzymes (CYP3A4): Only microsomes from CYP3A4-overexpressing cells were able to metabolize nemorubicin
